Assay results published in patent US12365674B2, “Inhibitors of histone deacetylase useful for the treatment or prevention of HIV infection” (Merck Sharp & Dohme LLC, priority 2019, dated 2025).

Molecular target: T1, HDAC6 (Homo sapiens, UniProt Q9UBN7)
T1 sequence (Q9UBN7 1-1215): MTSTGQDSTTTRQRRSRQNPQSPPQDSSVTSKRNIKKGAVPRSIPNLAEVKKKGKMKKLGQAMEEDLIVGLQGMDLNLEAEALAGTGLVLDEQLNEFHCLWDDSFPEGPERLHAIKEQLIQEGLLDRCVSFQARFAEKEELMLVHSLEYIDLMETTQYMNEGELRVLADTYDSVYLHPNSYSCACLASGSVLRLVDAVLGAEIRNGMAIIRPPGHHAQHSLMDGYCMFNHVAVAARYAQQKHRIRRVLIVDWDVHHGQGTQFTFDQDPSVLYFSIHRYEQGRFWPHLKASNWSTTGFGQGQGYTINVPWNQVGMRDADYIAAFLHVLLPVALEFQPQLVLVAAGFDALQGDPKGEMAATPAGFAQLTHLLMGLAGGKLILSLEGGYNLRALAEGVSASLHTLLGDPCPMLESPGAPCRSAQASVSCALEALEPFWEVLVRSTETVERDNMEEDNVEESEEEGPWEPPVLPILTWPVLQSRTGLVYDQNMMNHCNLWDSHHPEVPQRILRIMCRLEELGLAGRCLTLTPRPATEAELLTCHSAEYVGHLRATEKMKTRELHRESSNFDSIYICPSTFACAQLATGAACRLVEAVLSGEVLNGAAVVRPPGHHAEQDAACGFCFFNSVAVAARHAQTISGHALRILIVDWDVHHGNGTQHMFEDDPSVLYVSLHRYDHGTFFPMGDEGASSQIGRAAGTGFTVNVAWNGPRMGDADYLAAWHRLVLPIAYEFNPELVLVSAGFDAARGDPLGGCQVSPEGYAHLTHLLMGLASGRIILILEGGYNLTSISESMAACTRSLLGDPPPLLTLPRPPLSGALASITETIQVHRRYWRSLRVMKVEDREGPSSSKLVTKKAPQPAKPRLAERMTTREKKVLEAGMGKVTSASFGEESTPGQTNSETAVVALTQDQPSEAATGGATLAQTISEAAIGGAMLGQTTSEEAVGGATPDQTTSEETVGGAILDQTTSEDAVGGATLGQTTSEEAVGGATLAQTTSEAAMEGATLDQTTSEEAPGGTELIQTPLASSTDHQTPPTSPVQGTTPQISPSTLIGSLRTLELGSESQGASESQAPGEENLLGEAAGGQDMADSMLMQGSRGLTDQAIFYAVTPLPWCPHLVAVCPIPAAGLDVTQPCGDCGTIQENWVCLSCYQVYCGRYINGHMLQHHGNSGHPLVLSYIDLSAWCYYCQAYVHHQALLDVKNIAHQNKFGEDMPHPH
Assay: Human HDAC enzyme inhibitor Fluor-de-Lys assay, HDAC6
Assay type: biochemical
Details: 1.3 nM enzyme, 2.5 μM substrate BML-KI104, 3 h pre-incubation, 60 min reaction; read-out: HDAC6_IC50
Source text: Recombinant human HDAC8 (catalog number BML-SE145-0100) and HDAC10 (catalog number BML-SE559-0050) enzymes, HDAC substrates BML-KI104 and BML-KI178, and HDAC developer solutions BML-KI105 and BML-KI176 were purchased from Enzo Life Sciences (Farmingdale, NY). Recombinant human HDAC5 and HDAC11 were purchased from BPS Bioscience (San Diego, CA)(catalog numbers 50045 and 50021). Substrate Boc-Lys(TFA)-AMC was obtained from Bachem (Bupendorf, Switzerland) (catalog number 1-1985). HDAC inhibitor suberoylanilide hydroxamic acid (SAHA) was obtained from Indofine (Hillsborough Township, NJ) and trichostatin A (TSA) was obtained from Sigma-Aldrich (St. Louis, MO). […] HEPES pH 8.0 was obtained from Boston BioProducts (Ashland, MA), Tween-20 from Fisher Scientific (Hampton, NH)(catalog number BP337), TCEP from Calbiochem and 7.5% bovine serum albumin (BSA) from Life Technologies (Carlsbad, CA) (catalog number 15260037). 384-well, black assay plates were obtained from Corning (Corning, NY) (catalog number 3575).
The histone deacetylase activities of HDAC1, HDAC2, HDAC3, HDAC6, and HDAC8 were measured in modified Fluor-de-Lys assays in 384-well format. In this assay, HDAC enzymes are initially incubated with an ε-acetyl (or -trifluoroacetyl)-L-lysine-containing substrate with a C-terminal amide having aminomethylcoumarin as the amine component. HDACs cleave the ε-acetyl group, rendering the resulting product susceptible to AMC cleavage by trypsin. The released AMC is then detected by its fluorescence.
The HDAC 1, 2 assays employed buffer A, which contained 20 mM HEPES, pH 8.0, 1 mM MgCl2, 137 mM NaCl, 2.7 mM KCl, 0.05% BSA. The HDAC3/SMRT assay employed buffer B, consisting of 20 mM HEPES, pH 8.0, 1 mM MgCl2, 50 mM NaCl, 2.7 mM KCl, 0.05% BSA, 0.005% Tween 20, and 10 μM IP4. The HDAC6 assay employed buffer C, consisting of 20 mM HEPES, pH 8.0, 1 mM MgCl2, 137 mM NaCl, 2.7 mM KCl, 0.5 mM TCEP (Calbiochem) and 0.05% BSA. The HDAC8 assay employed buffer D, consisting of 20 mM HEPES, pH 8.0, 1 mM MgCl2, 100 mM NaCl, 20 mM KCl, 0.1% n-octyl-β-D-glucoside (Anatrace, Maumee, OH) and 0.05% BSA. All steps were performed at room temperature (23° C.). The assay was performed by pre-incubating serial dilutions of test compounds with the target HDAC prior to initiation with substrate. Each compound was titrated in a 10-point dose response, using a 1:3 fold dilution scheme, with 0.15 ul of solution added by ECHO555 to the plate, followed by the addition of 20 μl of the appropriate HDAC isoform diluted in appropriate assay buffer. […] Final conditions used for each assay were: 1. HDAC 1, 0.3 nM total enzyme, 20 μM substrate BML-K1104; 2. HDAC 2, 1.5 nM total enzyme, 40 μM substrate BML-K1104; 3. HDAC 3/SMRT, 0.3 nM total enzyme, 20 μM substrate BML-K1104; 4. HDAC 6, 1.3 nM total enzyme, 2.5 μM substrate BML-K1104; 5. HDAC 8, 1.3 nM total enzyme, 200 μM substrate BML-K1178; the final high dose of test compound was 30 μM. For potent compounds, 900 nM was used as the final high dose. The reactions were stopped and developed by addition of 30 ul of HDAC developer solution containing a saturating level of HDAC inhibitor as follows: 1.

SMILES	IC50
COc1cc2nc(C)ccc2cc1-c1cnc([C@H](COCCCC(=O)c2cc(C)on2)NC(=O)[C@H]2CC23CCN(C)CC3)[nH]1 [Compound 20, (1S)-N-{(1R)-1-[5-(7-methoxy-2-methylquinolin-6-yl)-1H-imidazol-2-yl]-2-[4-(5-methylisoxazol-3-yl)-4-oxobutoxy]ethyl}-6-methyl-6-azaspiro[2.5]octane-1-carboxamide]	> 0.9 µM
Cc1ccc2cc(-c3cnc([C@H](CSCCCC(=O)c4ncco4)NC(=O)[C@H]4CC45CCN(C)CC5)[nH]3)ccc2n1 [Compound 21, (1S)-6-methyl-N-[(1R)-1-[5-(2-methylquinolin-6-yl)-1H-imidazol-2-yl]-2-{[4-(1,3-oxazol-2-yl)-4-oxobutyl]sulfanyl}ethyl]-6-azaspiro[2.5]octane-1-carboxamide]	19.3 µM
